Reference: patent US20230086099A1, “COMBINATION THERAPY FOR TREATMENT OF CANCER AND CANCER METASTASIS” (ONA Therapeutics, S.L., priority 2020, published 2023)

B1: ONA-0: anti-CD36 antibody ONA-0 (also known as ONA-0-v1; as described in U.S. Patent Application No. 63/117,529) (antibody)
heavy: QVQLKQSGADLVRPGASVKLSCKASGYTFTDYYINWVKQRPGQGLEWIARIYPGSGNTYYNEKFKGKATLTAEKSSSTAYMQLSSLTSEDSAVYFCARGIGGGFGMDYWGQGTSVTVSSESARNPTIYPLTLPPVLCSDPVIIGCLIHDYFPFGTMNVTWGKSGKDITTVNFPPALASGGRYTMSSQLTLPAVECPEGESVKCSVQHDSNPVQELDVNCSPTPPPPITIPSCQPSLSLQRPALEDLLLGSDASITCTLNGLRNPEGAAFTWEPSTGKDAVQKKAAQNSCGCYSVSSVLPGCAERWNSGASFKCTVTHPESGTLTGTIAKVTVNTFPPQVHLLPPPSEELALNELLSLTCLVRAFNPKEVLVRWLHGNEELSPESYLVFEPLKEPGEGATTYLVTSVLRVSAETWKQGDQYSCMVGHEALPMNFTQKTIDRLSGKPTNVSVSVIMSEGDGICY
light: SIVMTQTPKFLLVSAGDRITITCKASQSVSDDVAWYQQKPGQSPKLLIYYASNRYTGVPDRFTGSGYGTDFTFTISTVQAEDLAVYFCQQDYSSPLTFGAGTKLEIKRADAAPTVSIFPPSSEQLTSGGASVVCFLNNFYPKDINVKWKIDGSERQNGVLNSWTDQDSKDSTYSMSSTLTLTKDEYERHNSYTCEATHKTSTSPIVKSFNRNEC

Assays:
OVCAR-3 cells = assay: OVCAR-3 orthotopic mouse model of ovarian cancer; assay type: in vivo, NSG mice
Protocol: Studies of the effects of the combination of ONA-0 anti-CD36 antibody and cisplatin on ovarian cancer were performed in NSG mice (immuno-deficient). The studies included only female mice. All mice were inoculated with commercially available OVCAR-3 (ATCC) cancer cells. OVCAR-3 cells were derived from a human progressive adenocarcinoma of the ovary (i.e., from an ovarian cancer). Prior to inoculation, the OVCAR-3 cells were cultured in a humidified incubator at 37° C. with 5% CO2, and were grown in RPMI-1640 supplemented with 5 μg ml^−1 penicillin/streptomycin, 0.01 mg/ml bovine insulin and 20% FBS (GIBCO). For each mouse, a piece of an OVCAR-3 xenograft was implanted orthotopically. Treatment of the implanted mice began 23 days after implantation with the OVCAR-3 tumor pieces. Inoculated mice were divided into one of two treatment groups: cisplatin injection control (n=9) or cisplatin in combination with ONA-0 treatment (n=8). Antibody treatments were administered via intraperitoneal (i.p.) injection daily at a dose of 3 mg/kg and cisplatin treatments were administered via intraperitoneal (i.p.) injection twice per week at a dose of 2 mg/kg (FIG. 7B). Mice were sacrificed at the end of the treatment period. Upon sacrifice, organs and tissues were collected for performance of immunohistochemistry analysis.

[1] = tested on: Detroit oral cancer cells; assay: Detroit oral cancer cells inoculated in NSG mice: anti-CD36 antibody with cisplatin; assay type: in vivo; details: lung metastases from oral cancer, H&E staining of the lungs; FIGS. 2, 3A-3B
Protocol: (§1) Studies on the combination of anti-CD36 antibody with cisplatin were performed in NSG mice (immuno-deficient) males and females (first experiment mice directly bought, follow up experiments in house breeding) All mice were inoculated with commercially available oral cancer cells Ab dosing was always done daily i.p.
(§2) Two types of oral cancer cell lines were inoculated: • Detroit: “medium” metastatic and very large primary tumor • FaDu: “very strong” metastatic and small primary tumor
(§3) 50,000 or 100,000 cancer cells were inoculated. The starting time of treatment was the amount of days after inoculation of the cancer cells Ab treatment starts.

[2] = tested on: FaDu cell line (oral cancer cell line); assay: FaDu oral cancer cells inoculated in NSG mice: lymph node metastases, ONA-0 with cisplatin; assay type: in vivo
Protocol: as §1, §2, §3

Molecule	SR positive area (collagenous and fibrotic areas) of primary tumors (OVCAR-3 cells; Sirius red staining, FIG. 9C) [%]	primary tumor weight, average (OVCAR-3 cells; at sacrifice, FIG. 9B) [grams]	percent necrosis of primary tumors (OVCAR-3 cells; histology, blinded quantification by a pathologist, FIG. 9C)	percentage of mice with metastasis in the liver (OVCAR-3 cells; macroscopic, visual inspection, FIG. 8A) [%]	percentage of animals with metastasis in the peritoneal wall (OVCAR-3 cells; macroscopic, visual inspection, ONA-0 3 mg/kg i.p. daily, cisplatin 2 mg/kg i.p. twice per week, FIG. 8A) [%]	lung metastases, size and number [1]	efficacy on lymph node metastases ([2]; study of FIGS. 4A-4E)	efficacy on lymph node metastasis ([2]; study of FIGS. 5A-5E and 6A-6B)
N.N.[Cl][Pt][Cl] [cisplatin]	27.45	0.468	approximately 14.2%	11	22	reduces the size of metastases		
B1							demonstrates efficacy on lymph node metastases	effective as a monotherapy
